The test system of experiment [1] is CD22. Kind of experiment: CD22 expression in human PBMC, antibody binding capacity by flow cytometry. The settings on record: FIG. 2. Type of experiment: cell-based. Here is the method: (§1) The ability of bryostatin-1 to promote antigen expression was evaluated in vitro. Human peripheral blood mononuclear cells (PBMC) were cultured according to previously published methods (Ramakrishna et al., 2019). Briefly, cells were washed and then treated with either bryostatin-1 (1 nM) or DMSO (vehicle control) for different times as indicated, ranging from 45 min to 24 hrs. Antibody binding capacity (ABC) was measured by flow cytometry (NCI flow lab); and plotted (FIGS. 1 and 2), either directly or as fold change over DMSO/vehicle control.

The subject of experiment [2] is tumor associated antigen expression. The conditions noted are these: animal experiments; cited from earlier work.
The subject of experiment [3] is CD19. Kind of experiment: CD19 expression in human PBMC, antibody binding capacity by flow cytometry. Type of experiment: cell-based. The conditions noted are these: FIG. 1. On the procedure:
as §1
For orientation: A flow cytometer gives signals particle by particle.

The subject of experiment [4] is CD19 and CD22. Description: Changes in expression of CD19 and CD22 in tumor cell lines and human cells after varying exposure times. Type of experiment: cell-based. On the procedure:
We have shown that short exposure to bryostatin-1 in vitro is sufficient to elevate tumor-associated antigen expression. In experiments performed on numerous tumor cell lines and human cells, bryostatin-1 was administered for varying periods of time, ranging from 45 min to 24 hrs, and changes in the expression of CD19 and CD22 were measured. […] This elevation took time to become evident and was maximal at 72 h.

Experiment [5] has as its system antigen expression. The conditions noted are these: FIGS. 3A and 3B; Ramakrishna et al. 2019; cited from earlier work.
In experiment [6] the test system is CD22. The conditions noted are these: B-cell tumors such as ALL and CLL; cited from earlier work.
Setting [7] is: 1 nM, 45 min vs 3 hrs or 24 hrs.
Where [8] appears, read: bryostatin-1 1 nM for 45 min, 3 hrs or 24 hrs.

The text below walks through data of US20250134848A1, “METHOD OF ADMINISTRATION OF […] THE INDUCTION OF TUMOR ASSOCIATED ANTIGENS” (BryoLogyx Inc., priority 2022, published 2025).

The structures appear in SMILES notation.

Turning to `CCC/C=C/C=C/C(=O)O[C@H]1/C(=C/C(=O)OC)C[C@H]2C[C@H]([C@@H](C)O)OC(=O)C[C@H](O)C[C@@H]3C[C@H](OC(C)=O)C(C)(C)[C@](O)(C[C@@H]4C/C(=C/C(=O)OC)C[C@H](/C=C/C(C)(C)[C@]1(O)O2)O4)O3` [bryostatin-1], the “elevation of CD22 after 45 min incubation compared with longer incubations” value in experiment [1] (setting [7]) is “same elevation in antigens as longer incubations”. Also, the “expression of CD22” value in experiment [1] (setting [8]) is recorded as “increases in expression of CD22”. For the same molecule, the “tumor associated antigen expression after a single intraperitoneal administration” value in experiment [2] was “able to induce an elevation of tumor associated antigen expression”. Moreover, in experiment [3] (setting [7]), the “elevation of CD19 after 45 min incubation compared with longer incubations” value is listed as “same elevation in antigens as longer incubations”. The “expression of CD19” value in experiment [3] (setting [8]) is on record as “increases in expression of CD19”. Also, the “time at which elevation of antigen expression was maximal” value in experiment [4] (exposure 45 min to 24 hrs) is 72 h. The “increase in antigen expression after short exposure (45 min) compared with 3 h or 24 h exposure” value in experiment [4] (tumor cell lines and human cells, in vitro) is recorded as “same level of increase in antigen expression as 3 h or 24 h exposure”. In addition, the “time for which the increase in antigen expression remains elevated” value in experiment [5] is on record as 7 days. The “cell-surface expression of CD22” value in experiment [6] is “increase cell-surface expression of CD22”.
